SMILES strings stand for the structures.

The test system of assay [1] is NAMALWA (Burkitt's Lymphoma). Description: combination Emax (second highest fraction inhibited in the dose matrix, 72 h); higher = more inhibition; extreme values may be limits of the assay. The method in brief:
(§1)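 Cell lines grown in DMEM/F12 or RPMI with 10% FBS were plated in 1536-well plates and held 24 hours at 37°C, 5% CO2 before 72 hours of exposure to two-drug dose matrices, with DMSO typically at 0.2%. CellTiter-Glo 2.0 luminescence gave viability, which was converted to inhibition. Vehicle wells were set to 0 and blank wells to 1. Combination Emax is the second-highest inhibition in the matrix, and Bliss excess is the observed combination effect minus the expected EA + EB − EA·EB, where EA and EB are the single-agent effects.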

For assay [2], the system named is T84 (Colorectal Carcinoma). The description is as above. In a few lines:
as §1

Assay [3] deals with NCI-H3118 (Head and Neck Carcinoma). The description is as above. The method in brief:
as §1

For the next assay, the system named is NCI-H226 (Mesothelioma). The description is as above. In a few lines:
as §1

In assay [4] the test system is SNU-423 (Hepatocellular Carcinoma). Described as above. In a few lines: as §1
The next assay has as its system IST-MEL1 (Melanoma). Described as above. The method in brief:
as §1

A further assay relates to ES6 (Ewing's Sarcoma). The assay is described as above. In a few lines:
as §1

Assay [5] has as its system MONO-MAC-6 (Acute Myeloid Leukemia). The description is as above. The method in brief: as §1
A further assay deals with KALS-1 (Glioblastoma). The description is as above. The method in brief: as §1
In assay [6] the test system is BxPC-3 (Pancreatic Carcinoma). The description is as above. The method in brief:
as §1

The test system of assay [7] is ZR-75-30 (Breast Carcinoma). The assay is described as above. The method in brief: as §1
Assay [8] relates to SCC-4 (Oral Cavity Carcinoma). The description is as above. The method in brief: as §1
Assay [9] deals with LS-1034 (Colorectal Carcinoma). Described as above. The method in brief: as §1
Assay [10] concerns LCLC-103H (Non-Small Cell Lung Carcinoma). The assay is described as above. The method in brief:
as §1

Assay [11] has as its system NAMALWA (Burkitt's Lymphoma). Description: Bliss excess, mean over the matrix (fraction); higher = more synergy. In a few lines:
as §1

The subject of assay [12] is IA-LM (Non-Small Cell Lung Carcinoma). The description is as above. The method in brief: as §1
In the next assay the test system is SK-N-SH (Neuroblastoma). The assay is described as above. The method in brief:
as §1

Assay [13] relates to ZR-75-30 (Breast Carcinoma). The assay is described as above. In a few lines:
as §1

For another assay, the system named is GAK (Melanoma). Described as above. The method in brief:
as §1

Assay [14] has as its system RCC-JW (Kidney Carcinoma). The assay is described as above. The method in brief: as §1
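For Bliss excess, mean over the matrix in this document: after 72 h of two-drug dosing.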

`O=C(c1cc(Cc2n[nH]c(=O)c3ccccc23)ccc1F)N1CCN(C(=O)C2CC2)CC1` [Olaparib] + CC1(C)CCC(CN2CCN(c3ccc(C(=O)NS(=O)(=O)c4ccc(NCC5CCOCC5)c([N+](=O)[O-])c4)c(Oc4cnc5[nH]ccc5c4)c3)CC2)=C(c2ccc(Cl)cc2)C1 [Venetoclax] (first compound max 10 µM, 7x7, partner max 1 µM): the “combination Emax” value was 0.456 in assay [1]; 0.065 in assay [2]; 0.153 in assay [3]; 0.0963 in the assay with NCI-H226 (Mesothelioma); 0.115 in assay [4]; 0.628 in the assay with IST-MEL1 (Melanoma). For the same compound, the “combination Emax” value worked out at 0.173 with ES6 (Ewing's Sarcoma); 0.249 in [5]; 0.118 with KALS-1 (Glioblastoma); 0.148 in [6]; 0.158 in assay [7]; 0.0794 in assay [8]. In addition, the results for the “combination Emax” value in assay [9] and in assay [10] were 0.008 and 0.155, respectively. The Bliss excess was 0.0044 in [11]; -0.0339 in assay [12]; 0.0412 in the assay on SK-N-SH (Neuroblastoma); -0.0247 in [13]; -0.048 in the assay with GAK (Melanoma); -0.045 in assay [14].

Consider `Cc1c2c(nn1C)CSCc1cc(n(C)n1)CSc1cc(c3ccccc3c1)OCCCc1c(C(=O)O)n(C)c3c-2c(Cl)ccc13` [AZD5991] + CC(=O)O[C@H]1C(=O)[C@@]2(C)[C@H]([C@H](OC(=O)c3ccccc3)[C@]3(O)C[C@H](OC(=O)[C@H](O)[C@@H](NC(=O)c4ccccc4)c4ccccc4)C(C)=C1C3(C)C)[C@]1(OC(C)=O)CO[C@@H]1C[C@@H]2O [Paclitaxel] (first compound max 1 µM, 7x7, partner max 3 µM), for which the “combination Emax” value in [1] is 1; in assay [2] it was 0.701; in assay [3], 0.973; with NCI-H226 (Mesothelioma), 0.378; in assay [4], 0.672; in the assay on IST-MEL1 (Melanoma), 0.587. For the same compound, the “combination Emax” value in the assay on ES6 (Ewing's Sarcoma) came out at 0.312; in [5], 1; in the assay on KALS-1 (Glioblastoma), 0.951; in assay [6], 0.686; in assay [7], 0.441; in assay [8] it was 0.868. The entries for the “combination Emax” value in [9] and in [10] were 0.587 and 0.91, respectively. In addition, the Bliss excess in assay [11] is 0.0041; in [12] it was -0.0452; in the assay with SK-N-SH (Neuroblastoma) it was -0.0507; in assay [13], 0.0617; in the assay with GAK (Melanoma), 0.0893; in assay [14] it was -0.0029.

As for `C[C@@H](Oc1cc(-c2cnn(C3CCNCC3)c2)cnc1N)c1c(Cl)ccc(F)c1Cl` [Crizotinib] + Cn1cnc2c(F)c(Nc3ccc(Br)cc3Cl)c(C(=O)NOCCO)cc21 [Selumetinib] (first compound max 10 µM, 7x7, partner max 10 µM), the “combination Emax” value worked out at 0.937 in [1]; 0.576 in [2]; 0.627 in assay [3]; 0.393 in the assay on NCI-H226 (Mesothelioma); 0.823 in [4]; 0.454 with IST-MEL1 (Melanoma). The “combination Emax” value in the assay on ES6 (Ewing's Sarcoma) stood at 0.59; in [5], 0.991; in the assay on KALS-1 (Glioblastoma), 0.538; in assay [6], 0.439; in [7], 0.0695; in assay [8], 0.496. In addition, the “combination Emax” value in assay [9] was 0.79; in [10] it was 0.412. Moreover, the Bliss excess is -0.0259 in [11]; -0.0463 in assay [12]; -0.0546 in the assay with SK-N-SH (Neuroblastoma); -0.0416 in assay [13]; -0.0473 in the assay with GAK (Melanoma); -0.0432 in [14].

Values taken from the supplement of paper PMC11061612.
